Test results: publication doi:10.1101/2021.01.21.427566v1, “Gradual opening of Smc arms in prokaryotic condensin” (biorxiv, 2021)

Columns and labels:
Smc-ScpAB holo-complex = biological target: T1, Smc-ScpAB holo-complex (Bacillus subtilis, UniProt P51834); test: coupled ATPase assay, ATP titration; type: biochemical; conditions: wild-type Smc with ScpAB, pH 7.5, 2 mM MgCl2, 25 °C
T1 construct: full-length native (untagged) Smc, ScpA and ScpB purified separately from E. coli and mixed stoichiometrically; with Segregation and condensation protein A; Segregation and condensation protein B
T1 sequence (P51834 1-1186): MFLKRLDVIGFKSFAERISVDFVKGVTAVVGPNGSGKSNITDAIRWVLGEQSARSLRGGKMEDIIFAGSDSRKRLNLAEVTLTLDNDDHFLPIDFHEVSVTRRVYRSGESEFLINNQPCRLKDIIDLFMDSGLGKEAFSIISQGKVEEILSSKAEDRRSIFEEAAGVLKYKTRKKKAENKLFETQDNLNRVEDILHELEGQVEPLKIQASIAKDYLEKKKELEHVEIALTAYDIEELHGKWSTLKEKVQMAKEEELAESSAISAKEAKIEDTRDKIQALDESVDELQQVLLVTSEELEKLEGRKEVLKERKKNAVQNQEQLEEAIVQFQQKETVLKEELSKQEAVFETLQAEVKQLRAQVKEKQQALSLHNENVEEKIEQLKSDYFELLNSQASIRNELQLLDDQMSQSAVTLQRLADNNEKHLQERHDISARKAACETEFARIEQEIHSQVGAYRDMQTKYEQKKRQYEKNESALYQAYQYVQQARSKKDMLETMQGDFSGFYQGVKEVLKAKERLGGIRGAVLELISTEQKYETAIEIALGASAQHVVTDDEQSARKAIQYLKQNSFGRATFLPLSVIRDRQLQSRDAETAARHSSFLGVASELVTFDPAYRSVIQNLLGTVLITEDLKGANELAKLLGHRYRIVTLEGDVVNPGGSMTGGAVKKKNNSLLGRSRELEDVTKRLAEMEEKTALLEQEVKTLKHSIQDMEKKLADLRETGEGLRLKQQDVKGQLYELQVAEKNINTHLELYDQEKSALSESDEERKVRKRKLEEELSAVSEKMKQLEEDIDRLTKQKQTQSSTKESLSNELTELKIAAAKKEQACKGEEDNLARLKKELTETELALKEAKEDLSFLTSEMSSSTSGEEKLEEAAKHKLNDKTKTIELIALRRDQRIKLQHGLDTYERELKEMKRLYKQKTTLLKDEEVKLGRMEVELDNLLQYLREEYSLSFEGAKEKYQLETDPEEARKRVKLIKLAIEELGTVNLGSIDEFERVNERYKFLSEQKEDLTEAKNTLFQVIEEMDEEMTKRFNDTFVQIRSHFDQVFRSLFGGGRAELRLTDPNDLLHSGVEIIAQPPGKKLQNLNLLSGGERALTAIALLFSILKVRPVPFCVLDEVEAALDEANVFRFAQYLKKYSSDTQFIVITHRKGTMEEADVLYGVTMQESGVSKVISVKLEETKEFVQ
T1 sequence (P35154 1-251 partner): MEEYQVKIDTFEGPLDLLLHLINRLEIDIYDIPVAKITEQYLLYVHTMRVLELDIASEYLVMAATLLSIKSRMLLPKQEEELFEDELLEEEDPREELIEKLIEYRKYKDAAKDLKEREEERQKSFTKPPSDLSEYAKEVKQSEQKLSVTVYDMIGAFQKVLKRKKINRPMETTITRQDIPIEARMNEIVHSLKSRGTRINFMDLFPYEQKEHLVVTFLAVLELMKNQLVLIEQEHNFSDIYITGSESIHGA
T1 sequence (P35155 1-197 partner): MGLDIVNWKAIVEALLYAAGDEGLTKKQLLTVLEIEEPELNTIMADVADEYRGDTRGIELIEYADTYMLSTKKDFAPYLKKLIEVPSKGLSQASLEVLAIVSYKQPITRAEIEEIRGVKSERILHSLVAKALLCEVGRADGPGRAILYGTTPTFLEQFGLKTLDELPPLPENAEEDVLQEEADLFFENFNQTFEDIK

[1] = biological target: T2, Bsu Smc (Smc dimer without ScpAB) (Bacillus subtilis, UniProt P51834); test: coupled ATPase assay, ATP titration; type: biochemical; conditions: wild-type Smc, no DNA, pH 7.5, 2 mM MgCl2, 25 °C
T2 construct: full-length native (untagged) Smc, expressed in E. coli BL21-Gold (DE3) from pET-22/pET-28; homodimer
T2 sequence (P51834 1-1186): T1 sequence (P51834 1-1186)

With Nc1ncnc2c1ncn2[C@@H]1O[C@H](COP(=O)(O)OP(=O)(O)OP(=O)(O)O)[C@@H](O)[C@H]1O [ATP] the “coupled ATPase assay, ATP titration” value (Smc-ScpAB holo-complex) was “increasing concentrations of ATP and in the absence or presence of dsDNA40 and ScpAB” and the “coupled ATPase assay, ATP titration” value [1] was “Measurement of ATP hydrolysis rates for Smc protein (wt), Smc(G302W) and Smc(G302E)”.
